According to the SangsterLogP compilation:

Experiment: not given
Conditions: not given

| SMILES | logP |
| --- | --- |
| CCOC(=O)COc1cccc2ccccc12 | 2.9 |
| CS(=O)(=O)c1ccc(OCC(=O)O)cc1 | 0.06 |
| Nc1nc[nH]n1 | -0.87 |

Experiment: not given
Conditions: not given
Remark: another data set of the same source

| SMILES | logP |
| --- | --- |
| CCCCC(CCC)C(=O)O (stereo unspecified) | 3.01 |
| CCCC(C)C(=O)O (stereo unspecified) | 1.8 |
| CCCC(CC)C(=O)O (stereo unspecified) | 2.23 |

Experiment: method code SF-AS, from DOI: 10.1007/s001289900104, PMID: 8661852
Conditions: not given

| SMILES | logP |
| --- | --- |
| O=[N+]([O-])c1c(Cl)nc(-c2ncncn2)nc1Cl | 2.29 |
| Clc1cc(-c2ncncn2)c(Cl)nn1 | 0.84 |
| Oc1cc(O)nc(-c2ncncn2)n1 | 1.49 |

Experiment: method code SF-AS, from DOI: 10.1021/j150653a049
Conditions: not given

| SMILES | logP |
| --- | --- |
| OCc1cc(Br)ccc1O | 1.72 |
| Cc1ccc(O)c(CO)c1 | 0.97 |
| OCc1cccc(O)c1 | 0.5 |

Experiment: method code SF-GLC, from DOI: 10.1021/jm00240a002, PMID: 1151965
Conditions: not given

| SMILES | logP |
| --- | --- |
| COC(F)(F)C(Cl)Cl | 2.21 |
| FC(F)(F)C(F)(F)F | 2 |
| FC(F)(F)C(Cl)Br (stereo unspecified) | 2.3 |

Experiment: method code SF-GLC, from PMID: 6629728
Conditions: pH 7.4

| SMILES | logD |
| --- | --- |
| C1COC2CC2C1 (stereo unspecified) | 1.26 |
| C=CC1CCC2OC2C1 (stereo unspecified) | 2.08 |
| C1CC2OC2CC1C1CO1 (stereo unspecified) | 0.44 |

Experiment: not given
Conditions: not given
Remark: another data set of the same source

| SMILES | logP |
| --- | --- |
| O=[N+]([O-])c1c(Cl)c(Cl)c(Cl)c(Cl)c1Cl | 4.64 |
| Clc1ccc(Cl)c(Cl)c1 | 4.03 |
| NC(=O)c1c(Cl)cccc1Cl | 1.25 |

Experiment: not given
Conditions: not given
Remark: another data set of the same source

| SMILES | logP |
| --- | --- |
| NC(=O)c1cccnc1 | -0.34 |
| CCNC(=O)c1cccnc1 | 0.31 |
| CCCNC(=O)c1cccnc1 | 0.66 |

Experiment: not given
Conditions: not given
Remark: another data set of the same source

| SMILES | logP |
| --- | --- |
| CC(C)c1cc(C(C)C)c(C(=O)O)c(C(C)C)c1 | 4.05 |
| COc1cccc(OC)c1C(=O)O | 0.95 |
| Nc1c(Cl)c(F)nc(OCC(=O)O)c1Cl | 1.74 |

Experiment: not given
Conditions: not given
Remark: another data set of the same source

| SMILES | logP |
| --- | --- |
| CC(C)C12C=CC(C)(CC1)C1C(=O)N(CCCCN3CCN(c4ccc5ccccc5n4)CC3)C(=O)C12 (stereo unspecified) | 6.3 |
| O=C1C2C3CCC(C3)C2C(=O)N1CCCCN1CCN(c2ccc3ccccc3n2)CC1 (stereo unspecified) | 3.64 |
| O=C1C2C3C=CC(CC3)C2C(=O)N1CCCCN1CCN(c2ccc3ccccc3n2)CC1 (stereo unspecified) | 3.83 |
| CC(C)C12CCC(C)(CC1)C1C(=O)N(CCCCN3CCN(c4ccc5ccccc5n4)CC3)C(=O)C12 (stereo unspecified) | 6.59 |

Experiment: method code SF, from DOI: 10.1248/yakushi1947.96.10_1169, PMID: 1033993
Conditions: pH 0.7

| SMILES | logD |
| --- | --- |
| CCC1(C2CCCCC2)C(=O)NC(=O)N(C)C1=O (stereo unspecified) | 2 |
| CCC1C(=O)NC(=O)NC1=O | -0.35 |
| C=CCC1(CC)C(=O)NC(=O)N(C)C1=O (stereo unspecified) | 1.35 |

Experiment: not given
Conditions: not given
Remark: another data set of the same source

| SMILES | logP |
| --- | --- |
| Nc1cc(Cl)cc(Cl)c1 | 2.6 |
| COc1cc(N)cc(OC)c1 | 0.99 |
| CCNc1nc(NCC)nc(SC)n1 | 2.63 |

Experiment: method code SF, from DOI: 10.1016/0360-3016(92)90876-j, PMID: 1735696
Conditions: pH 7.4

| SMILES | logD |
| --- | --- |
| O=[N+]([O-])c1nccn1CC=NO | -0.43 |
| CC(=O)O/N=C/Cn1ccnc1[N+](=O)[O-] | -0.47 |
| O=C(Cn1ccnc1[N+](=O)[O-])NCCO | -1.32 |

Experiment: method code SF-HPLC, from DOI: 10.1016/0378-5173(85)90011-0
Conditions: not given

| SMILES | logP |
| --- | --- |
| CC(=O)n1ncc2c(=O)[nH]cnc21 | -0.35 |
| CCC(=O)n1ncc2c(=O)[nH]cnc21 | 0.3 |

Same assay, conditions: pH 7.4

| SMILES | logD |
| --- | --- |
| O=c1[nH]cnc2[nH]ncc12 | -0.55 |

Experiment: not given
Conditions: not given
Remark: another data set of the same source

| SMILES | logP |
| --- | --- |
| O=C(Cc1cc(O)cc(=O)o1)c1ccccc1 | 0.43 |
| Cc1c(O)cc(C(=O)Cc2ccccc2)oc1=O | 0.78 |
| O=c1cc(O)cco1 | 0.5 |

Experiment: method code SF-AS, from DOI: 10.1007/bf01964075
Conditions: pH 2.1

| SMILES | logD |
| --- | --- |
| CNC(=O)C(C)NC(C)=O (racemic) | -1.21 |
| CNC(=O)CNC(C)=O | -1.56 |
| CNC(=O)[C@H](CC(C)C)NC(C)=O | 0.14 |

Experiment: method code SF-AS, from DOI: 10.1021/bi00730a008, PMID: 4688860
Conditions: not given

| SMILES | logP |
| --- | --- |
| O=CNc1cccc(Cl)c1 | 1.9 |
| CC(=O)c1ccc(NC=O)cc1 | 0.94 |
| O=CNc1ccc(Cl)cc1 | 2.04 |

Experiment: method code SF-HPLC, from DOI: 10.1016/0378-5173(92)90116-j
Conditions: pH 7.4

| SMILES | logD |
| --- | --- |
| CCC(C(=O)OCc1ccccc1COC(=O)C(CC)C(CO)Cc1cncn1C)C(CO)Cc1cncn1C (stereo unspecified) | 2.03 |
| CCC(C(=O)OCCCCCCCOC(=O)C(CC)C(CO)Cc1cncn1C)C(CO)Cc1cncn1C (stereo unspecified) | 2.67 |
| CCC(C(=O)OCc1ccc(COC(=O)C(CC)C(CO)Cc2cncn2C)cc1)C(CO)Cc1cncn1C (stereo unspecified) | 2.18 |
| CCC(C(=O)OCCCCCOC(=O)C(CC)C(CO)Cc1cncn1C)C(CO)Cc1cncn1C (stereo unspecified) | 1.57 |

Experiment: method code SF-AS, from DOI: 10.1002/jps.2600690614, PMID: 7205578
Conditions: not given

| SMILES | logP |
| --- | --- |
| CCN1CCN(CC)C1=S | 1.13 |
| CN(C)CCN(Cc1cccs1)c1ccccn1 | 2.87 |
| S=C1NCCCN1 | -0.68 |

Experiment: method code SF-AS, from DOI: 10.1111/1523-1747.ep12263302, PMID: 6470515
Conditions: not given

| SMILES | logP |
| --- | --- |
| Nc1ccc(N)cc1 | -0.3 |
| Nc1ccc(Cl)c(N)c1 | 0.85 |
| Nc1cc([N+](=O)[O-])ccc1O | 1.13 |

Experiment: from Kurihara, N.; Yamakawa, K.; Fujita, T.; Nakajima, M. (1980). Studies on BHC isomers and related compounds. XXVI. Anaerobic degradation of tetra-, penta- and hexachlorocyclohexane isomers by rat liver …
Conditions: not given

| SMILES | logP |
| --- | --- |
| ClC1C=CC(Cl)C(Cl)C1Cl (stereo unspecified) | 3.08 |
| ClC1=CC(Cl)C(Cl)C(Cl)C1Cl (stereo unspecified) | 3.61 |
| ClC1=C(Cl)C(Cl)C(Cl)C(Cl)C1Cl (stereo unspecified) | 4.31 |

Experiment: method code SF-AS, from DOI: 10.1021/jm00284a014, PMID: 5544400
Conditions: not given

| SMILES | logP |
| --- | --- |
| S=c1[nH]c2ccccc2[nH]1 | 1.66 |
| O=c1[nH]c2ccccc2[nH]1 | 1.12 |
| CCCN1CCCN(CCC)C1=S | 2.83 |

Experiment: method code SF-AS, from DOI: 10.1016/0045-6535(83)90122-4
Conditions: not given

| SMILES | logP |
| --- | --- |
| O=[N+]([O-])c1c(Cl)c(Cl)cc(Cl)c1Cl | 3.89 |
| O=[N+]([O-])c1ccc(Cl)c(Cl)c1 | 3.12 |
| O=[N+]([O-])c1cc(Cl)c(Cl)cc1Cl | 3.48 |

Experiment: method code SF-RC, from DOI: 10.1021/es60170a013
Conditions: not given

| SMILES | logP |
| --- | --- |
| COc1ccc(Cl)cc1 | 2.78 |
| Clc1cccc(Cl)c1 | 3.44 |
| O=NN(c1ccccc1)c1ccccc1 | 3.13 |

Experiment: method code SF-GLC, from DOI: 10.1016/s0022-3565(25)30310-1, PMID: 1181405
Conditions: pH 7.4

| SMILES | logD |
| --- | --- |
| CNC(=O)OC | -0.06 |
| CNC(=O)Oc1cc(C)c(C)c(C)c1 | 2.66 |
| CCCOC(=O)NC | 0.95 |

Experiment: not given
Conditions: not given
Remark: another data set of the same source

| SMILES | logP |
| --- | --- |
| N#Cc1c(Cl)cccc1Cl | 2.65 |
| C1=C\CC/C=C\CC/1 | 3.16 |
| C1=CCCC=CCCC=CCC1 | 4.12 |

Experiment: not given
Conditions: not given
Remark: another data set of the same source

| SMILES | logP |
| --- | --- |
| Cc1cc(C(=O)N2Cc3ccc(C(=O)N(CCO)CCO)n3Cc3ccccc32)ccc1-c1ccccc1C(F)(F)F | 3.21 |
| Cc1cc(C(=O)N2Cc3ccc(C(=O)N(CCO)CCO)n3Cc3ccccc32)ccc1-c1cc(F)ccc1C(F)(F)F | 3.31 |
| Cc1cc(C(=O)N2Cc3ccc(C(=O)NCCF)n3Cc3ccccc32)ccc1-c1ccccc1C(F)(F)F | 4.18 |
| Cc1cc(C(=O)N2Cc3ccc(C(=O)N4CCOCC4)n3Cc3ccccc32)ccc1-c1ccccc1CCF | 4.08 |

Experiment: method code SF-NMR, from DOI: 10.1002/jps.2600751016, PMID: 3795031
Conditions: not given

| SMILES | logP |
| --- | --- |
| CC(CCO)C(F)(F)F (stereo unspecified) | 1.37 |
| CC(CO)CC(F)(F)F (stereo unspecified) | 1.39 |
| CCC(O)CCC(F)(F)F (stereo unspecified) | 1.7 |

Experiment: method code SF-AS, from DOI: 10.1248/cpb.32.2380
Conditions: not given

| SMILES | logP |
| --- | --- |
| NS(=O)(=O)c1cc2c(cc1C(F)(F)F)NCNS2(=O)=O | 0.36 |
| NS(=O)(=O)c1cc2c(cc1Cl)N=CNS2(=O)=O | -0.1 |
| CN1C(CSCC(F)(F)F)Nc2cc(Cl)c(S(N)(=O)=O)cc2S1(=O)=O (stereo unspecified) | 1.9 |

Experiment: not given
Conditions: not given
Remark: another data set of the same source

| SMILES | logP |
| --- | --- |
| OCc1c(F)cccc1F | 1.12 |
| COc1ccc(S(N)(=O)=O)cc1 | 0.48 |
| C1=C(c2ccccc2)CCN(c2ccccc2)C1 | 2.71 |

Experiment: method code SF-GLC, from DOI: 10.1016/0378-4274(86)90173-6, PMID: 3952768
Conditions: not given

| SMILES | logP |
| --- | --- |
| CC(=O)CCC(C)C | 1.88 |
| CCCCCCCCCC(C)=O | 4.09 |
| CCCC(C)CCC(C)=O (stereo unspecified) | 2.92 |
